Patent US9284301B2, “Soluble guanylate cyclase activators” (Merck Sharp & Dohme Corp., priority 2010, dated 2016)

Target: T1, sGC α1/β1 heterodimer (Homo sapiens, UniProt Q02108+Q02153)
T1 construct: expressed in transfected cells; host or cells: CHO-K1 (clone #7, CHO-K1/sGC)
T1 sequence (Q02108 1-690): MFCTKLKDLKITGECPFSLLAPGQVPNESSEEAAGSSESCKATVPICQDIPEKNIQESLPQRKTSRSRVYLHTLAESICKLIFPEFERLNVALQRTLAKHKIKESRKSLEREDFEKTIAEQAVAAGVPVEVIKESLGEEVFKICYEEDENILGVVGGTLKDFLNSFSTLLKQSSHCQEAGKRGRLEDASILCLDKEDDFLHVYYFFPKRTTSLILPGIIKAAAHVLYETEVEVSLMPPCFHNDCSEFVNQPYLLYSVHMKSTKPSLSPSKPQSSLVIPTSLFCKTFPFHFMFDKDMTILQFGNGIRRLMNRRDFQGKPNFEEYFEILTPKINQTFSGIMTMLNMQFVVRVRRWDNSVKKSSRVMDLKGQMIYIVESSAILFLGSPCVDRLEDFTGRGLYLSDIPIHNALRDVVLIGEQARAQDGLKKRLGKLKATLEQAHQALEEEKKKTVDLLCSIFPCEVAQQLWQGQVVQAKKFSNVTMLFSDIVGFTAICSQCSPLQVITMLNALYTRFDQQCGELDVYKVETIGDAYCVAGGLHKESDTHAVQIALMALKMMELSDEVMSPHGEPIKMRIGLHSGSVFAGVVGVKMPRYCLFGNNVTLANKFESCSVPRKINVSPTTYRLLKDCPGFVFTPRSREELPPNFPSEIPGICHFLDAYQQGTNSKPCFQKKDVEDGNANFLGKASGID
T1 sequence (Q02153 1-619): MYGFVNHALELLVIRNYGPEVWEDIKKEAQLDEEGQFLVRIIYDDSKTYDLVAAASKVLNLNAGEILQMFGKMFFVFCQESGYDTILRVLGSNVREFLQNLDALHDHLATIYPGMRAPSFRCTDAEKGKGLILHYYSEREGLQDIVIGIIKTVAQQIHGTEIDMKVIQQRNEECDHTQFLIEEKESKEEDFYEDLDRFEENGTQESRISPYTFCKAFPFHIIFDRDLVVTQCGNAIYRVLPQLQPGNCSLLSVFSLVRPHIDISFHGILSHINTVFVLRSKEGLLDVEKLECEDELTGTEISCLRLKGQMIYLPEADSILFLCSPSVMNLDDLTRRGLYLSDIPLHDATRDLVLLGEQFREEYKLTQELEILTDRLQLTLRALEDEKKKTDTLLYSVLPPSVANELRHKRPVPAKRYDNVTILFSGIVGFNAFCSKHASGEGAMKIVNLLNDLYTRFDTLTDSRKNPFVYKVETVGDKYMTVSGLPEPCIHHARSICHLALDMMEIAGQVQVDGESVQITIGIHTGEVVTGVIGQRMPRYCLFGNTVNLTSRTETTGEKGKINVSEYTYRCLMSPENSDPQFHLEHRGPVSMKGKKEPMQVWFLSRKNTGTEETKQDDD
Assay: Cell-based sGC Functional Assay (CASA Assay): cGMP generation in CHO-K1/sGC cells, HTRF readout
Conditions: without ODQ incubation; for EC50: read-out: IP (inflection point)
Source text: Cell-based sGC Functional Assay (CASA Assay) Rationale: sGC is a heme-containing enzyme that converts GTP to secondary messenger cGMP. Increases in cGMP levels affect several physiological processes including vasorelaxation through multiple downstream pathways. […] Heme-dependent activators (HDAs) preferentially activate sGC containing a ferrous Deme group. To determine the effect of sGC activators on enzyme activity, the CASA assay was developed to monitor the generation of cGMP in a cell line that stably expresses the heterodimeric sGC protein. Methods: A CHO-K1 cell line stably expressing the sGC α1/β1 heterodimer was generated using a standard transfection protocol. CHO-K1 cells were transfected with plasmids pIREShyghsGCα1 and pIRESneo-hsGCβ1 simultaneously using FUGENE reagent. Clones that stably express both subunits were selected with hygromycin and neomycin for ˜2 weeks. Clone #7 was chosen for the assay and was designated CHO-K1/sGC. CHO-K1/sGC cells were maintained in F-K12 medium containing 10% heat-inactivated Fetal Bovine Serum (FBS), 100 μg/mL penicillin/streptomycin, 0.5 mg/mL hygromycin and 0.25 mg/mL G418. On the day of the assay, cells were harvested in EBSS Assay Buffer (EAB) containing 5 mM MgCl2, 10 mM HEPES (4-(2-hydroxyethyl)piperazine-1-ethanesulfonic acid) and 0.05% BSA (bovine serum albumin) and cell density was adjusted to 2×10^6/mL with EAB. IBMX (3-isobutyl-1-methylxanthin, 0.5 mM) was added to inhibit degradation of cGMP. Compounds were diluted from DMSO stock solutions and added to the assay at a final DMSO concentration of 1%. Cells were incubated with compounds of the invention, in the presence and/or absence of 10 μM of 1H-(1,2,4)oxadiazolo(4,3-a) quinoxalin-1-one (ODQ), for 1 hr at 37° C. At the end of the incubation period, the reaction was terminated and the cells were lysed. The level of intracellular cGMP was determined using an HTRF-based assay kit (from CisBio, 62GM2PEC), which detects the displacement of a fluorescence labeled cGMP from its specific antibody. HTRF is a TR-FRET based technology that uses the principles of TRF and FRET. The amount of cGMP was plotted against compound concentration in PRISM software and the inflection point (IP) and maximum fold induction over DMSO control were derived from the plot.

Maximum fold induction over DMSO control | EC50 | SMILES
71 fold | 0.499 µM | Cc1c(-c2cnc(-c3nc(Cc4c(F)ccc(F)c4F)n4ncccc34)nc2N)c(C(F)(F)F)nn1C [Example 3, 5-[1,5-dimethyl-3-(trifluoromethyl)-1H-pyrazol-4-yl]-2-[7-(2,3,6-trifluorobenzyl)imidazo[1,5-b]pyridazin-5-yl]pyrimidin-4-amine]
55 fold | 0.178 µM | Cc1cc(-c2cnc(-c3nc(Cc4c(F)ccc(F)c4F)n4ncccc34)nc2N)ccn1 [Example 4, 5-(2-methylpyridin-4-yl)-2-[7-(2,3,6-trifluorobenzyl)imidazo[1,5-b]pyridazin-5-yl]pyrimidin-4-amine]
129 fold | 0.296 µM | Nc1nc(-c2nc(Cc3c(F)ccc(F)c3F)n3ncccc23)ncc1-c1cccc2ncccc12 [Example 7, 5-quinolin-5-yl-2-[7-(2,3,6-trifluorobenzyl)imidazo[1,5-b]pyridazin-5-yl]pyrimidin-4-amine]
322 fold | 0.397 µM | Nc1nc(-c2nc(Cc3c(F)ccc(F)c3F)n3cc(F)ccc23)ncc1-c1cccnc1 [Example 56, 2-[6-fluoro-3-(2,3,6-trifluorobenzyl)imidazo[1,5-a]pyridin-1-yl]-5-pyridin-3-ylpyrimidin-4-amine]
234 fold | 0.17 µM | Nc1nc(-c2nc(Cc3c(F)ccc(F)c3F)n3cc(F)ccc23)ncc1-c1ccnc2ccc(F)cc12 [Example 73, 5-(6-fluoroquinolin-4-yl)-2-[6-fluoro-3-(2,3,6-trifluoro-benzyl)imidazo[1,5-a]pyridin-1-yl]pyrimidin-4-amine]
127 fold | 0.034 µM | Cn1cc(-c2c(N)nc(-n3nc(Cc4c(F)ccc(F)c4F)c4cc(Cl)ccc43)nc2N)cn1 [Example 83, 2-[5-chloro-3-(2,3,6-trifluorobenzyl)-1H-indazol-1-yl]-5-(1-methyl-1H-pyrazol-4-yl)pyrimidine-4,6-diamine]
74 fold | 0.524 µM | Nc1nc(-n2nc(Cc3c(F)ccc(F)c3F)c3cc(Cl)ccc32)nc(N)c1NC(=O)C1CC1 [Example 178, N-{4,6-diamino-2-[5-chloro-3-(2,3,6-trifluorobenzyl)-1H-indazol-1-yl]pyrimidin-5-yl}cyclopropanecarboxamide]
244 fold | 0.54 µM | Nc1nc(-n2nc(CCC3CCCC3)c3ccccc32)nc(N)c1-c1cccnc1 [Example 208, 2-[3-(2-cyclopentylethyl)-1H-indazol-1-yl]-5-pyridin-3-ylpyrimidine-4,6-diamine]
